This is an account of results in ChEMBL document CHEMBL5149994, “Anticancer potential of indirubins in medicinal chemistry: Biological activity, structural modification, and structure-activity relationship” (Eur J Med Chem, 2021).

SMILES strings stand for the structures. ≈ marks a conversion by molar mass, not a printed value. Bounds are passed on as bounds.

For data set [1], the system named is MCF7. Put plainly: Cytotoxicity against human MCF7 cells assessed as cell growth inhibition measured after 4 days by crystal violet staining based assay. Conditions: MCF7, 96 h. Format: functional.
The nature of data set [2]: Inhibition of GST-tagged recombinant human CDK2/cyclin E expressed in Sf9 cells incubated for 10 mins in presence of [33P]-gamma ATP and ATP by scintillation counter method.
Data set [3] is described as follows: Kinetic solubility of compound in PBS at pH 7.4. Format: physicochemical. Particulars: read-out: Kinetic_solubility.
A short description of data set [4]: Cytotoxicity against rat RK3E cells harboring RAS assessed as cell growth inhibition measured after 24 hrs by MTT assay. The format is toxicity, cell-based. (In general: Formazan colour is commonly taken as a measure of viable cells.)
The next data set deals with HT-1080. Put plainly: Antiproliferative activity against human HT-1080 cells assessed as cell growth inhibition measured after 24 hrs by MTT assay. Particulars: HT-1080, 24 h. The format is functional, cell-based.
Another data set concerns SNU-638. Put plainly: Antiproliferative activity against human SNU-638 cells assessed as cell growth inhibition measured after 24 hrs by MTT assay. Format: functional, cell-based. Particulars: SNU-638, 24 h.
Data set [5] relates to A549. Put plainly: Antiproliferative activity against human A549 cells assessed as cell growth inhibition measured after 24 hrs by MTT assay. The format is functional, cell-based. Conditions: A549, 24 h.
The subject of data set [6] is HL-60. Put plainly: Antiproliferative activity against human HL-60 cells assessed as cell growth inhibition measured after 72 hrs by MTT assay. The format is functional, cell-based. Particulars: HL-60, 72 h.
Data set [7] relates to HepG2. The data set is described as follows: Antiproliferative activity against human HepG2 cells assessed as cell growth inhibition measured after 72 hrs by MTT assay. The format is functional, cell-based. Particulars: HepG2, 72 h.
A short description of data set [8]: Antiproliferative activity against human Lu1 cells assessed as cell growth inhibition measured after 72 hrs by MTT assay. Format: functional, cell-based. Particulars: Lu1, 72 h.
The test system of data set [9] is SW480. Put plainly: Antiproliferative activity against human SW480 cells assessed as cell growth inhibition measured after 72 hrs by MTT assay. The format is functional, cell-based. Particulars: SW480, 72 h.
The next data set deals with CH1. Put plainly: Antiproliferative activity against human CH1 cells assessed as cell growth inhibition measured after 96 hrs by MTT assay. Format: functional, cell-based. Particulars: CH1, 96 h.
The test system of data set [10] is A549. Put plainly: Antiproliferative activity against human A549 cells assessed as cell growth inhibition measured after 96 hrs by MTT assay. The format is functional, cell-based. Particulars: A549, 96 h.
Data set [11] relates to SW480. The data set is described as follows: Antiproliferative activity against human SW480 cells assessed as cell growth inhibition measured after 96 hrs by MTT assay. Format: functional, cell-based. Conditions: SW480, 96 h.
Data set [12] relates to HL-60. Put plainly: Cytotoxicity against human HL-60 cells assessed as cell growth inhibition. Format: functional, cell-based.
In a further data set the test system is DU-145. Put plainly: Antiproliferative activity against human DU-145 cells assessed as cell growth inhibition by MTT assay. The format is functional, cell-based.
Data set [13] concerns SW480. Put plainly: Antiproliferative activity against human SW480 cells assessed as cell growth inhibition. The format is functional, cell-based.
The subject of data set [14] is HepG2. Put plainly: Antiproliferative activity against human HepG2 cells assessed as cell growth inhibition. The format is functional, cell-based.
The subject of data set [15] is HL-60. Put plainly: Antiproliferative activity against human HL-60 cells assessed as cell growth inhibition. Format: functional, cell-based.
Data set [16] is described as follows: Antiproliferative activity against human Lu1 cells assessed as cell growth inhibition. Format: functional, cell-based.
In data set [17] the test system is MCF7. Put plainly: Cytotoxicity against human MCF7 cells assessed as cell growth inhibition. The format is functional, cell-based.
The subject of the next data set is NCI-H157. Put plainly: Cytotoxicity against human NCI-H157 cells assessed as cell growth inhibition at 100 uM by calcein-AM staining based flow cytometry analysis relative to control. The format is functional. More on the design: scale not given: the % may be the effect or the level left.
For the next data set, the target named is CDK2/Cyclin A2 (Homo sapiens, UniProt P24941). The data set is described as follows: Inhibition of CDK2/cyclin A (unknown origin). The format is protein-complex assay.
The nature of data set [18]: Cytotoxicity against human SK-MEL-29 cells assessed as cell growth inhibition measured after 24 hrs by WST-1 assay. The format is functional, cell-based. Conditions: SK-MEL-29, 24 h.
In the next data set the test system is SK-MEL-103. Put plainly: Cytotoxicity against human SK-MEL-103 cells assessed as cell growth inhibition measured after 24 hrs by WST-1 assay. The format is functional, cell-based. Conditions: SK-MEL-103, 24 h.
Another data set has as its system SK-MEL19. The data set is described as follows: Cytotoxicity against human SK-MEL19 cells assessed as cell growth inhibition measured after 24 hrs by WST-1 assay. The format is functional, cell-based. Particulars: SK-MEL19, 24 h.

In general, IC50 refers to the concentration needed to halve the response being measured. Consider `CN(C)CCN(C)S(=O)(=O)c1ccc2c(c1)/C(=C1/Nc3ccccc3/C1=N\O)C(=O)N2`, for which the half-maximal inhibitory concentration (IC50) in the data set on MCF7 [1] is under 0.1 µM; in data set [2] it was 0.04 µM. Moreover, in [3], the solubility kinetic came to 18 µg/mL (≈ 40.8 µM).

For `O=C1Nc2ccc(F)cc2/C1=C1/Nc2ccccc2/C1=N\O`, the concentration for half-maximal inhibition (IC50) at 24 h in [4] is 5.1 µM. The 50% inhibitory concentration (IC50) stood at 3.4 µM in the data set on HT-1080, 2.1 µM in the data set with SNU-638 and 12.2 µM in the data set on A549 [5].

Turning to `CCCOc1cccc(/C=C/C(=O)c2ccc(OCCn3cc(CN4C(=O)/C(=C5\Nc6ccccc6\C5=N/O)c5ccccc54)nn3)cc2O)c1`, the concentration for half-maximal inhibition (IC50) was found to be 1.29 µM in the data set with HL-60 [6], 2.95 µM in the data set on HepG2 [7], 2.5 µM in data set [8] and 2.91 µM in the data set with SW480 [9].

As for `NCCO/N=C1/C(=C2/C(=O)Nc3ccc(Br)cc32)Nc2ccc(O)cc21`, the 50% inhibitory concentration (IC50) amounted to 0.28 µM with CH1, 1 µM in the data set on A549 [10] and 0.52 µM in the data set with SW480 [11].

As for `O=C1Nc2ccc([N+](=O)[O-])cc2/C1=C1/Nc2ccccc2/C1=N\O`, the IC50 at 24 h in data set [4] is 1 µM.

Regarding `O=C1/C(=C2/C(=O)N(CCN3CCCC3)c3ccccc32)Nc2ccccc21`, the IC50 in the data set on HL-60 [12] turned out to be 3.56 µM.

Consider `CC(=O)O[C@H](CN)CC(=O)O/N=C1/C(=C2/C(=O)Nc3ccccc32)Nc2ccc(O)cc21`, for which the IC50 is 1.8 µM in the data set with CH1, 7.6 µM in the data set with A549 [10] and 5.6 µM in the data set with SW480 [11].

`CN1C(=O)/C(=C2\Nc3ccc(Cl)cc3C2=O)c2cccnc21`: in the data set on DU-145, the 50% inhibitory concentration (IC50) was determined as 8 µM.

As for `Cc1ccc(Nc2nnc(SCC(O)CN3C(=O)/C(=C4\Nc5ccccc5C4=O)c4ccccc43)s2)c(C)c1` (configuration not stated), the half-inhibitory concentration (IC50) with SW480 [13] was 4.19 µM; in the data set with HepG2 [14], 4.47 µM; in the data set with HL-60 [15], 4.28 µM; in data set [16], 4.53 µM.

`C[C@@H]1O[C@H](N2C(=O)/C(=C3\Nc4ccc(Cl)cc4C3=O)c3ccccc32)[C@H](O)[C@H](O)[C@H]1O`: in the data set on MCF7 [17], the half-maximal inhibitory concentration (IC50) came out at 6.96 µM.

As to `O=C1/C(=C2/C(=O)N(CC(O)CSc3nnc(Nc4ccccc4)s3)c3ccccc32)Nc2ccccc21` (configuration not stated), the IC50 in the data set with SW480 [13] stood at 1.65 µM; in the data set with HepG2 [14] it was 1.9 µM; in the data set with HL-60 [15], 1.35 µM; in [16] it was 2.21 µM.

Regarding `O=C1Nc2ccc(OC(F)(F)F)cc2/C1=C1/[Se]c2ccccc2C1=O`, the Activity with NCI-H157 was 17.4%.

For `C=CCC1(O)/C(=C2/C(=O)Nc3ccc(S(=O)(=O)N(C)CCN(C)C)cc32)Nc2ccccc21` (configuration not stated), the half-maximal inhibitory concentration (IC50) in the data set with MCF7 [1] was under 0.1 µM; in [2], 0.04 µM. The solubility kinetic in [3] is over 40 µg/mL.

Take `CN(C)CCN1C(=O)/C(=C2\Nc3ccccc3C2=O)c2ccccc21`: the IC50 in the data set with HL-60 [12] is 4.45 µM.

Molecule `O=C1Nc2ccccc2/C1=C1/Nc2ncccc2C1=O` gave an IC50 at CDK2/Cyclin A2 of 8.8 µM.

Take `O=C1Nc2ccccc2/C1=C1/Nc2ccccc2/C1=N\OCC(O)CSc1nnc(Nc2ccccc2)s1` (configuration not stated): the IC50 was 16.4 µM in the data set on SW480 [13], 17.7 µM in the data set on HepG2 [14], 9.52 µM in the data set with HL-60 [15] and 16.9 µM in data set [16].

With `C[C@@H]1O[C@H](N2C(=O)/C(=C3\Nc4ccccc4C3=O)c3ccccc32)[C@H](O)[C@H](O)[C@H]1O`, the half-inhibitory concentration (IC50) was determined as 86.6 µM in data set [18], 0.67 µM with MCF7 [17], 383 µM with SK-MEL-103 and 65.4 µM in the data set with SK-MEL19.

Consider `CC(C)(C)C(=O)Nc1ccc2c(c1)/C(=C1/Nc3ccccc3/C1=N\O)C(=O)N2`, for which the IC50 at 24 h in [4] worked out at 6.4 µM. For the same molecule, the IC50 in the data set with HT-1080 worked out at 4.2 µM; with SNU-638 it was 6.5 µM; with A549 [5] it was 6.4 µM.

Turning to `O=C1/C(=C2/C(=O)N([C@H]3O[C@H](CO)[C@@H](O)[C@H](O)[C@@H]3O)c3ccccc32)[Se]c2ccccc21`, the Activity in the data set on NCI-H157 is given as 21.5%.

On to `CCCOc1ccccc1/C=C/C(=O)c1ccc(OCCn2cc(CN3C(=O)/C(=C4\Nc5ccccc5\C4=N/O)c4ccccc43)nn2)cc1O`, for which the IC50 in the data set with HL-60 [6] stood at 1.28 µM; with HepG2 [7] it was 2.28 µM; in data set [8], 2.07 µM; in the data set on SW480 [9] it was 3.43 µM.
